Assay results published in patent EP0051852A1, “Pyrimido(4,5-b)(1,4)thiazines and process for their preparation” (Stiftung Forschungsinstitut Borstel, priority 1980, dated 1982).

Test system: E.coli(mutaflor)
Experiment: Bacterial growth kinetics, Coulter Counter (total cell count)
Type: cell-based
Set-up: unit not given here
Conditions: Coulter Counter (Gesamtkeimzahl); 75.0 µmol/l PTZ alone; 37°C, modified Sauton medium
From the text: 2,4-Diamino-5-(3',4',5'-trimehoxybenzvl)-pyrimidins (TMP) können auf ihre eigene und in Kombination potenzierte antimikrobielle Wirkung mit Hilfe der Bakterienvermehrungskinetik wie folgt geprüft werden: • Es werden zu Bakterienkulturen (Beispiel E.coli) in der logarithmischen Wachstumsphase die genannten Inhibitoren allein oder in den oben beschriebenen Kombinationen hinzugefügt. Die Veränderung der Zahl der Bakterien als Funktion der Zeit wird mit einem Coulter Counter (Gesamtkeimzahl) bzw. mit Hilfe der Kolonienzählung (Plattentest,Lebendkeimzahl) ermittelt. Die Vermehrungskurven werden bei Abwesenheit und bei Anwesenheit der Hemmstoffe und ihrer oben beschriebenen Kombinationen ermittelt. Die aus ihnen ermittelten Änderungen in den Vermehrungsgeschwindigkeiten sin^dein Maß für die antibakterielle Wirkung.
TMP wurde 1,5 Stunden später als die anderen Verbindungen der Kultur zugesetzt.

Nc1nc(O)c2c(n1)SCC(CO)=N2 [PTZ, 2-Amino-4-hydroxy-6-hydroxymethyl-7H-pyrimido[4,5b][1,4]thiazin]
beobachtete Vermehrungsgeschwindigkeitskonstanten kbeob.: 3.82
